Measured values: ChEMBL document CHEMBL4610120, “New Broad-Spectrum Antibiotics Containing a Pyrrolobenzodiazepine Ring with Activity against Multidrug-Resistant Gram-Negative Bacteria” (J Med Chem, 2020)
In brackets after ≈: the same amount, converted by molar mass.

System: not listed separately
Assay: Selectivity ratio of cytotoxicity against human WI38 cells to MIC for Pseudomonas aeruginosa PAO1
Type: toxicity, cell-based
Details: not given

With `COc1cc2c(cc1OCCCC(=O)Nc1cc(C(=O)Nc3ccc(-c4cc(C(=O)N5CCSCC5)n(C)c4)cc3)n(C)c1)N=C[C@@H]1CCCN1C2=O` as the molecule, how does the selectivity ratio read?
The selectivity ratio was 10.

System: Klebsiella pneumoniae
Assay: Antimicrobial activity against Klebsiella pneumoniae M6 by microdilution broth method
Type: functional
Details: not given

For `COc1cc2c(cc1OCCCC(=O)Nc1cc(C(=O)Nc3ccc(-c4cc(C(=O)N5CCSCC5)n(C)c4)cc3)n(C)c1)N=C[C@@H]1CCCN1C2=O`, which MIC is on record?
Its MIC is 4 µg/mL (≈ 5.42 µM).

System: Enterococcus faecalis
Assay: Antibacterial activity against vancomycin sensitive Enterococcus faecalis NCTC 775 by microdilution broth method
Type: functional
Details: not given

Which MIC does the source give for `COc1cc2c(cc1OCCCC(=O)Nc1cc(C(=O)Nc3ccc(-c4cc(C(=O)N5CCSCC5)n(C)c4)cc3)n(C)c1)N=C[C@@H]1CCCN1C2=O` here?
Its MIC is ≤ 0.03 µg/mL.

System: Enterococcus faecium
Assay: Antibacterial activity against vancomycin resistant Enterococcus faecium NCTC 12204 by microdilution broth method
Type: functional
Details: not given

For `COc1cc2c(cc1OCCCC(=O)Nc1cc(C(=O)Nc3ccc(-c4cc(C(=O)N5CCSCC5)n(C)c4)cc3)n(C)c1)N=C[C@@H]1CCCN1C2=O`, which MIC is on record?
The MIC was ≤ 0.03 µg/mL.

System: Staphylococcus aureus
Assay: Antibacterial activity against methicillin resistant Staphylococcus aureus NCTC 13616 by microdilution broth method
Type: functional
Details: not given

For `COc1cc2c(cc1OCCCC(=O)Nc1cc(C(=O)Nc3ccc(-c4cc(C(=O)N5CCSCC5)n(C)c4)cc3)n(C)c1)N=C[C@@H]1CCCN1C2=O`, which MIC is on record?
Its MIC is ≤ 0.03 µg/mL.

System: DNA
Assay: Stabilization of 5'-FAM-TAT-ATA-TAG-ATA-TTT-TTT-TAT-CTA-TAT-ATA-3'-TAMRA DNA (unknown origin) assessed as reduction in change in melting temperature at 1:1 to 5:1 ligand to DNA ratio measured after 3 hrs by FRET-based assay relative to control
Type: ADME, nucleic-acid assay
Details: not given

With `COc1cc2c(cc1OCCCC(=O)Nc1cc(C(=O)Nc3ccc(-c4cc(C(=O)N5CCSCC5)n(C)c4)cc3)n(C)c1)N=C[C@@H]1CCCN1C2=O` as the molecule, how does the fold change (FC) read?
Its fold change (FC) is 3 to 4.

System: Acinetobacter baumannii
Assay: Antimicrobial activity against Acinetobacter baumannii ATCC 17978 by microdilution broth method
Type: functional
Details: not given

For `COc1cc2c(cc1OCCCC(=O)Nc1cc(C(=O)Nc3ccc(-c4cc(C(=O)N5CCSCC5)n(C)c4)cc3)n(C)c1)N=C[C@@H]1CCCN1C2=O`, which MIC is on record?
The MIC was 2 µg/mL (≈ 2.71 µM).

System: not listed separately
Assay: Selectivity ratio of cytotoxicity against human WI38 cells to MIC for multidrug-resistant Pseudomonas aeruginosa NCTC 13437
Type: toxicity, cell-based
Details: not given

Which selectivity ratio does the source give for `COc1cc2c(cc1OCCCC(=O)Nc1cc(C(=O)Nc3ccc(-c4cc(C(=O)N5CCSCC5)n(C)c4)cc3)n(C)c1)N=C[C@@H]1CCCN1C2=O` here?
The selectivity ratio was 10.

System: not listed separately
Assay: Selectivity ratio of cytotoxicity against human WI38 cells to MIC for multidrug-resistant Acinetobacter baumannii AYE
Type: toxicity, cell-based
Details: not given

For `COc1cc2c(cc1OCCCC(=O)Nc1cc(C(=O)Nc3ccc(-c4cc(C(=O)N5CCSCC5)n(C)c4)cc3)n(C)c1)N=C[C@@H]1CCCN1C2=O`, which selectivity ratio is on record?
The selectivity ratio was 10.

System: not listed separately
Assay: Selectivity ratio of cytotoxicity against human WI38 cells to MIC for vancomycin resistant Enterococcus faecalis NCTC 12201
Type: toxicity, cell-based
Details: not given

For `COc1cc2c(cc1OCCCC(=O)Nc1cc(C(=O)Nc3ccc(-c4cc(C(=O)N5CCSCC5)n(C)c4)cc3)n(C)c1)N=C[C@@H]1CCCN1C2=O`, which selectivity ratio is on record?
The selectivity ratio was 100.

System: Klebsiella pneumoniae
Assay: Antibacterial activity against multidrug-resistant Klebsiella pneumoniae NCTC 13368 measured after 10 passages by microdilution broth method
Type: functional
Details: not given

With COLISTIN as the molecule, how does the MIC read?
The MIC was 32 µg/mL.

System: not listed separately
Assay: Cytotoxicity against human WI38 cells assessed as cell viability at 20 uM measured after 24 hrs by MTT assay relative to control
Type: cell-based, WI-38
Details: read-out: Activity

With `COc1cc2c(cc1OCCCC(=O)Nc1cc(C(=O)Nc3ccc(-c4cc(C(=O)N5CCSCC5)n(C)c4)cc3)n(C)c1)N=C[C@@H]1CCCN1C2=O` as the molecule, how does the viability at 24 h, 20 µM read?
The viability at 24 h, 20 µM was > 85%.

System: not listed separately
Assay: Selectivity ratio of cytotoxicity against human WI38 cells to MIC for methicillin resistant Staphylococcus aureus NCTC 13277
Type: toxicity, cell-based
Details: not given

Which selectivity ratio does the source give for `COc1cc2c(cc1OCCCC(=O)Nc1cc(C(=O)Nc3ccc(-c4cc(C(=O)N5CCSCC5)n(C)c4)cc3)n(C)c1)N=C[C@@H]1CCCN1C2=O` here?
The selectivity ratio was 100.

System: not listed separately
Assay: Selectivity ratio of cytotoxicity against human WI38 cells to MIC for methicillin sensitive Staphylococcus aureus NCTC 6571
Type: toxicity, cell-based
Details: not given

With `COc1cc2c(cc1OCCCC(=O)Nc1cc(C(=O)Nc3ccc(-c4cc(C(=O)N5CCSCC5)n(C)c4)cc3)n(C)c1)N=C[C@@H]1CCCN1C2=O` as the molecule, how does the selectivity ratio read?
The selectivity ratio was 100.

System: not listed separately
Assay: Selectivity ratio of cytotoxicity against human WI38 cells to MIC for vancomycin sensitive Enterococcus faecalis NCTC 775
Type: toxicity, cell-based
Details: not given

Which selectivity ratio does the source give for `COc1cc2c(cc1OCCCC(=O)Nc1cc(C(=O)Nc3ccc(-c4cc(C(=O)N5CCSCC5)n(C)c4)cc3)n(C)c1)N=C[C@@H]1CCCN1C2=O` here?
Its selectivity ratio is 100.

System: Enterococcus faecalis
Assay: Antibacterial activity against vancomycin resistant Enterococcus faecalis NCTC 12201 by microdilution broth method
Type: functional
Details: not given

For `COc1cc2c(cc1OCCCC(=O)Nc1cc(C(=O)Nc3ccc(-c4cc(C(=O)N5CCSCC5)n(C)c4)cc3)n(C)c1)N=C[C@@H]1CCCN1C2=O`, which MIC is on record?
The MIC was ≤ 0.03 µg/mL.

System: DNA
Assay: Stabilization of 5'-FAM-TAT-AGA-TAT-AGA-TAT-TTT-ATA-TCT-ATA-TCT-ATA-3'-TAMRA DNA (unknown origin) assessed as reduction in change in melting temperature at 1:1 to 5:1 ligand to DNA ratio measured after 3 hrs by FRET-based assay relative to control
Type: ADME, nucleic-acid assay
Details: not given

For `COc1cc2c(cc1OCCCC(=O)Nc1cc(C(=O)Nc3ccc(-c4cc(C(=O)N5CCSCC5)n(C)c4)cc3)n(C)c1)N=C[C@@H]1CCCN1C2=O`, which fold change (FC) is on record?
The fold change (FC) was 3 to 4.

System: not listed separately
Assay: Selectivity ratio of cytotoxicity against human WI38 cells to MIC for Klebsiella pneumoniae M6
Type: toxicity, cell-based
Details: not given

Which selectivity ratio does the source give for `COc1cc2c(cc1OCCCC(=O)Nc1cc(C(=O)Nc3ccc(-c4cc(C(=O)N5CCSCC5)n(C)c4)cc3)n(C)c1)N=C[C@@H]1CCCN1C2=O` here?
Its selectivity ratio is 10.

System: not listed separately
Assay: Selectivity ratio of cytotoxicity against human WI38 cells to MIC for Acinetobacter baumannii ATCC 17978
Type: toxicity, cell-based
Details: not given

With `COc1cc2c(cc1OCCCC(=O)Nc1cc(C(=O)Nc3ccc(-c4cc(C(=O)N5CCSCC5)n(C)c4)cc3)n(C)c1)N=C[C@@H]1CCCN1C2=O` as the molecule, how does the selectivity ratio read?
The selectivity ratio was 10.

System: not listed separately
Assay: Selectivity ratio of cytotoxicity against human WI38 cells to MIC for vancomycin resistant Enterococcus faecium NCTC 12204
Type: toxicity, cell-based
Details: not given

For `COc1cc2c(cc1OCCCC(=O)Nc1cc(C(=O)Nc3ccc(-c4cc(C(=O)N5CCSCC5)n(C)c4)cc3)n(C)c1)N=C[C@@H]1CCCN1C2=O`, which selectivity ratio is on record?
Its selectivity ratio is 100.

System: Pseudomonas aeruginosa
Assay: Antimicrobial activity against Pseudomonas aeruginosa PAO1 by microdilution broth method
Type: functional
Details: not given

With `COc1cc2c(cc1OCCCC(=O)Nc1cc(C(=O)Nc3ccc(-c4cc(C(=O)N5CCSCC5)n(C)c4)cc3)n(C)c1)N=C[C@@H]1CCCN1C2=O` as the molecule, how does the MIC read?
The MIC was > 32 µg/mL.

System: Staphylococcus aureus
Assay: Antibacterial activity against methicillin resistant Staphylococcus aureus NCTC 13277 by microdilution broth method
Type: functional
Details: not given

Which MIC does the source give for `COc1cc2c(cc1OCCCC(=O)Nc1cc(C(=O)Nc3ccc(-c4cc(C(=O)N5CCSCC5)n(C)c4)cc3)n(C)c1)N=C[C@@H]1CCCN1C2=O` here?
Its MIC is 0.06 µg/mL (≈ 0.0813 µM).

System: not listed separately
Assay: Selectivity ratio of cytotoxicity against human WI38 cells to MIC for methicillin resistant Staphylococcus aureus NCTC 13616
Type: toxicity, cell-based
Details: not given

For `COc1cc2c(cc1OCCCC(=O)Nc1cc(C(=O)Nc3ccc(-c4cc(C(=O)N5CCSCC5)n(C)c4)cc3)n(C)c1)N=C[C@@H]1CCCN1C2=O`, which selectivity ratio is on record?
The selectivity ratio was 100.

System: Acinetobacter baumannii
Assay: Antimicrobial activity against multidrug-resistant Acinetobacter baumannii AYE by microdilution broth method
Type: functional
Details: not given

Which MIC does the source give for `COc1cc2c(cc1OCCCC(=O)Nc1cc(C(=O)Nc3ccc(-c4cc(C(=O)N5CCSCC5)n(C)c4)cc3)n(C)c1)N=C[C@@H]1CCCN1C2=O` here?
Its MIC is 2 µg/mL (≈ 2.71 µM).

System: Klebsiella pneumoniae
Assay: Antimicrobial activity against multidrug-resistant Klebsiella pneumoniae NCTC 13368 by microdilution broth method
Type: functional
Details: not given

For `COc1cc2c(cc1OCCCC(=O)Nc1cc(C(=O)Nc3ccc(-c4cc(C(=O)N5CCSCC5)n(C)c4)cc3)n(C)c1)N=C[C@@H]1CCCN1C2=O`, which MIC is on record?
Its MIC is > 32 µg/mL.

System: Pseudomonas aeruginosa
Assay: Antimicrobial activity against multidrug-resistant Pseudomonas aeruginosa NCTC 13437 by microdilution broth method
Type: functional
Details: not given

For `COc1cc2c(cc1OCCCC(=O)Nc1cc(C(=O)Nc3ccc(-c4cc(C(=O)N5CCSCC5)n(C)c4)cc3)n(C)c1)N=C[C@@H]1CCCN1C2=O`, which MIC is on record?
The MIC was > 32 µg/mL.

System: Staphylococcus aureus
Assay: Antibacterial activity against methicillin sensitive Staphylococcus aureus NCTC 6571 by microdilution broth method
Type: functional
Details: not given

Which MIC does the source give for `COc1cc2c(cc1OCCCC(=O)Nc1cc(C(=O)Nc3ccc(-c4cc(C(=O)N5CCSCC5)n(C)c4)cc3)n(C)c1)N=C[C@@H]1CCCN1C2=O` here?
Its MIC is ≤ 0.03 µg/mL.

System: not listed separately
Assay: Selectivity ratio of cytotoxicity against human WI38 cells to MIC for multidrug-resistant Klebsiella pneumoniae NCTC 13368
Type: toxicity, cell-based
Details: not given

With `COc1cc2c(cc1OCCCC(=O)Nc1cc(C(=O)Nc3ccc(-c4cc(C(=O)N5CCSCC5)n(C)c4)cc3)n(C)c1)N=C[C@@H]1CCCN1C2=O` as the molecule, how does the selectivity ratio read?
Its selectivity ratio is 10.
